Data on 13 molecules can be found in PubChem BioAssay (NCI).

Molecules are shown by their SMILES.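 A five-concentration, 48-hour dose response in 96-well plates underlies each endpoint, interpolated linearly between surrounding concentrations. GI50 marks 50% less growth. Definition used: TGI = concentration required for complete inhibition of growth.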 A value given as a limit tells only on which side of the number the result lay.

Test systems include RPMI-8226 leukemia; HCT-116 colon; U251 CNS; HOP-92 NSCLC; MOLT-4 leukemia; SF-268 CNS; OVCAR-3 ovarian; SNB-19 CNS; NCI-H522 lung; HOP-62 NSCLC.
Holding throughout (assay): growth of human tumour cells (NCI), 48 h

As for `CC1=CC(C)C/C=C/C2C3OC3(C)C(C)C3C(Cc4c[nH]c5ccccc45)NC(=O)C23C(=O)C=CC(=O)C1O` (configuration not stated), the TGI with RPMI-8226 leukemia was 5.06 µM; in the experiment with HCT-116 colon, 8.4 µM; in the experiment with U251 CNS, 43.2 µM; in the experiment on HOP-92 NSCLC it was 3.13 µM; in the experiment on MOLT-4 leukemia it was 5.2 µM; in the experiment on SF-268 CNS it was 40.7 µM. For the same molecule, the TGI in the experiment on OVCAR-3 ovarian was 12.1 µM; in the experiment on SNB-19 CNS, more than 46.6 µM; in the experiment with NCI-H522 lung, 8.03 µM; with HOP-62 NSCLC, 26.7 µM.

With `CN(C)CCCNC(=O)c1cc2[nH]c3c(cnc4ccc([N+](=O)[O-])cc43)c(=O)c2n1C`, the GI50 was 5.83 µM in the experiment with RPMI-8226 leukemia; 6.8 µM in the experiment with HCT-116 colon; 17.5 µM in the experiment on U251 CNS; 13.5 µM in the experiment with HOP-92 NSCLC; 13.5 µM in the experiment with MOLT-4 leukemia; 15.9 µM with SF-268 CNS. Also, the GI50 with OVCAR-3 ovarian was 19.4 µM; in the experiment on SNB-19 CNS, 17.7 µM; in the experiment with NCI-H522 lung, 17.4 µM; in the experiment with HOP-62 NSCLC, 17.2 µM. Also, the TGI in the experiment on RPMI-8226 leukemia worked out at 19.3 µM; in the experiment on HCT-116 colon, 20.1 µM; with U251 CNS, 31.3 µM; in the experiment with HOP-92 NSCLC it was 32.1 µM; in the experiment on MOLT-4 leukemia, 33.9 µM; in the experiment with SF-268 CNS it was 29.4 µM. In addition, the TGI with OVCAR-3 ovarian stood at 45.9 µM; in the experiment on SNB-19 CNS it was 33.6 µM; in the experiment with NCI-H522 lung, 32.1 µM; in the experiment on HOP-62 NSCLC, 30.9 µM.

For the molecule `CC(=O)N(C)c1ccc(Nc2cc(C)[nH]c3ccc4ncnc4c23)cc1`, the TGI with RPMI-8226 leukemia worked out at 82.7 µM; with HCT-116 colon, 16.5 µM; in the experiment on U251 CNS it was 30.6 µM; in the experiment on HOP-92 NSCLC, 14.7 µM; with MOLT-4 leukemia it was 13.7 µM; with SF-268 CNS, 38.7 µM. Also, the TGI was 27.5 µM with OVCAR-3 ovarian, 42.4 µM in the experiment on SNB-19 CNS, 21.6 µM in the experiment with NCI-H522 lung and 23.5 µM in the experiment on HOP-62 NSCLC.

`O=c1cnn(C/C=C/CBr)c(=O)[nH]1`: the TGI came out at 49.5 µM with RPMI-8226 leukemia; 28.8 µM with U251 CNS; 28.7 µM with HOP-92 NSCLC; 50.1 µM in the experiment on MOLT-4 leukemia; 39.3 µM in the experiment on SF-268 CNS; 64.2 µM with OVCAR-3 ovarian. Further, the TGI in the experiment with SNB-19 CNS is 79.7 µM; in the experiment on NCI-H522 lung, 22.9 µM; with HOP-62 NSCLC, 33.2 µM.

`COc1ccc(C2COc3cc(OC(C)=O)c(OC(C)=O)cc3C2)cc1` (configuration not stated): the TGI amounted to 36.9 µM with RPMI-8226 leukemia; 47.3 µM in the experiment on HCT-116 colon; 24.3 µM in the experiment on U251 CNS; 23.6 µM in the experiment on HOP-92 NSCLC; 29.1 µM with MOLT-4 leukemia; 37 µM in the experiment on SF-268 CNS. The TGI in the experiment on OVCAR-3 ovarian amounted to 39.9 µM; in the experiment on SNB-19 CNS it was 33.4 µM; in the experiment on NCI-H522 lung, 6.3 µM; in the experiment with HOP-62 NSCLC, 67.4 µM.

For the molecule `O=C(O)c1ccc(Nc2c3ccccc3nc3ccccc23)cc1`, the TGI with RPMI-8226 leukemia was more than 100 µM; in the experiment with HCT-116 colon it was more than 100 µM; in the experiment with U251 CNS it was more than 100 µM; in the experiment on HOP-92 NSCLC, more than 100 µM; in the experiment with MOLT-4 leukemia, more than 83.9 µM; in the experiment with SF-268 CNS it was more than 100 µM. In addition, the TGI with OVCAR-3 ovarian, in the experiment on SNB-19 CNS, in the experiment on NCI-H522 lung and in the experiment with HOP-62 NSCLC was more than 100 µM each time.

Regarding `c1nc(OCC2CCCCC2)c2[nH]cnc2n1`, the TGI in the experiment with RPMI-8226 leukemia, with HCT-116 colon, in the experiment on U251 CNS, in the experiment with HOP-92 NSCLC, with MOLT-4 leukemia and in the experiment with SF-268 CNS was more than 100 µM throughout. Besides, the TGI with OVCAR-3 ovarian, with SNB-19 CNS, in the experiment with NCI-H522 lung and in the experiment on HOP-62 NSCLC was more than 100 µM in each case.

As for `CC(C)(C)[Si](OC1CC(n2cnc3c(N)ncnc32)OC1CO)(c1ccccc1)c1ccccc1` (configuration not stated), the TGI is 43.9 µM in the experiment on RPMI-8226 leukemia; 31.3 µM in the experiment on HCT-116 colon; 34.1 µM in the experiment with U251 CNS; 47.3 µM in the experiment with HOP-92 NSCLC; more than 100 µM in the experiment with MOLT-4 leukemia; 35 µM with SF-268 CNS. Moreover, the TGI in the experiment on OVCAR-3 ovarian worked out at 33.9 µM; with SNB-19 CNS, 50 µM; in the experiment on NCI-H522 lung, 30 µM; in the experiment on HOP-62 NSCLC it was 45.3 µM.

Consider `O=C(O)CC(CC(=O)O)C(=O)O`, for which the TGI in the experiment with RPMI-8226 leukemia, in the experiment with HCT-116 colon, in the experiment on U251 CNS, in the experiment with HOP-92 NSCLC, in the experiment with MOLT-4 leukemia and in the experiment with SF-268 CNS was more than 100 µM throughout. Besides, the TGI in the experiment on OVCAR-3 ovarian, in the experiment on SNB-19 CNS, in the experiment on NCI-H522 lung and in the experiment with HOP-62 NSCLC was more than 100 µM in each case.

As to `Cc1cc(C)n(C(=C(C(Cl)=C(Cl)Cl)[N+](=O)[O-])n2nc(C)cc2C)n1`, the TGI in the experiment on HCT-116 colon was 14.5 µM; in the experiment on U251 CNS, 11.7 µM; with HOP-92 NSCLC it was 6.78 µM; in the experiment with MOLT-4 leukemia, 5 µM; in the experiment on SF-268 CNS it was 16.7 µM; in the experiment on OVCAR-3 ovarian, 10.4 µM. Also, the TGI with SNB-19 CNS stood at 16.2 µM; in the experiment on NCI-H522 lung, 6.74 µM; with HOP-62 NSCLC, 19.5 µM.

Regarding `O=C1C(Cl)N(c2ccc(Cl)cc2)C1c1c[nH]c2ccccc12` (configuration not stated), the TGI is more than 100 µM in the experiment on RPMI-8226 leukemia; 28.2 µM in the experiment with HCT-116 colon; 25.7 µM in the experiment with U251 CNS; 45.3 µM with HOP-92 NSCLC; 70 µM in the experiment on MOLT-4 leukemia; more than 100 µM in the experiment on SF-268 CNS. Moreover, the TGI was 36.1 µM with OVCAR-3 ovarian, more than 100 µM with SNB-19 CNS, 39 µM with NCI-H522 lung and 33.7 µM in the experiment with HOP-62 NSCLC.

As for `COc1ccc(N2C(=O)/C(=C(\C)c3cc4ccccc4oc3=O)N=C2c2cc([N+](=O)[O-])ccc2Cl)cc1`, the TGI with RPMI-8226 leukemia, in the experiment on HCT-116 colon, with U251 CNS, in the experiment on MOLT-4 leukemia, with SF-268 CNS and with OVCAR-3 ovarian was more than 100 µM each time. For the same molecule, the TGI in the experiment on SNB-19 CNS was more than 100 µM; with NCI-H522 lung it was 39.1 µM; in the experiment with HOP-62 NSCLC it was more than 100 µM.

As for `C/C(=N\NC(=S)N1CCCCC1)c1nc2ncccc2[nH]1`, the TGI was 30.1 µM in the experiment on RPMI-8226 leukemia; 22.7 µM with HCT-116 colon; more than 100 µM with U251 CNS; 43.1 µM in the experiment on HOP-92 NSCLC; 19.9 µM with MOLT-4 leukemia; more than 100 µM in the experiment with SF-268 CNS. The TGI is more than 100 µM in the experiment on OVCAR-3 ovarian, more than 100 µM with SNB-19 CNS, 30.7 µM in the experiment with NCI-H522 lung and more than 100 µM in the experiment with HOP-62 NSCLC.
